Patent US20070128217A1 (priority 2003, published 2007)

Assays:
[1] = test system: antibodies in sera from SARS patients (sera 1a, 1b, 2, 6, 37, 62, London, SARS-yellow, SARS-green); format: binding, human; parameters: Binding of serum 6 to linear peptides of protein X1 of SARS-CoV Urbani / Binding of serum 37 to linear peptides of protein X1 of SARS-CoV Urbani / Binding of serum 6 to looped/cyclic peptide (PEPSCAN-ELISA) / Binding of serum 37 to looped/cyclic peptide (PEPSCAN-ELISA) / Binding of serum 37 to looped/cyclic peptides of protein X1 of SARS-CoV Urbani / Binding of serum 6 to linear peptides of protein X2 / Binding of serum 37 to linear peptides of protein X2 / Binding of serum 37 to looped/cyclic peptides of protein X2 of SARS-CoV Urbani / Binding of serum 6 to linear peptides of protein M of SARS-CoV Urbani / Binding of serum 37 to linear peptides of protein M of SARS-CoV Urbani / Binding of serum 6 to looped/cyclic peptides of protein M of SARS-CoV Urbani / Binding of serum 37 to looped/cyclic peptides of protein M of SARS-CoV Urbani / Binding of serum 6 to linear peptides of protein X3 of SARS-CoV Urbani / Binding of serum 37 to linear peptides of protein X3 of SARS-CoV Urbani / Binding of serum 37 to looped/cyclic peptides of protein X3 of SARS-CoV Urbani / Binding of serum 6 to linear peptides of protein X4 of SARS-CoV Urbani / Binding of serum 37 to linear peptides of protein X4 of SARS-CoV Urbani / Binding of serum 37 to looped/cyclic peptides of protein X4 of SARS-CoV Urbani / Binding of serum 6 to linear peptides of protein X5 of SARS-CoV Urbani / Binding of serum 37 to linear peptides of protein X5 of SARS-CoV Urbani / Binding of serum 37 to looped/cyclic peptides of protein X5 of SARS-CoV Urbani / Binding of serum 6 to linear peptides of protein N of SARS-CoV Urbani / Binding of serum 37 to linear peptides of protein N of SARS-CoV Urbani / Binding of serum 6 to linear peptide (PEPSCAN-ELISA) / Binding of serum 1a to looped/cyclic peptides of protein N of SARS-CoV Urbani / Binding of serum 1b to looped/cyclic peptides of protein N of SARS-CoV Urbani / Binding of serum 2 to looped/cyclic peptides of protein N of SARS-CoV Urbani / Binding of serum 6 to looped/cyclic peptides of protein N of SARS-CoV Urbani / Binding of serum 37 to looped/cyclic peptides of protein N of SARS-CoV Urbani / Binding of serum 62 to looped/cyclic peptides of protein N of SARS-CoV Urbani / Binding of serum London to looped/cyclic peptides of protein N of SARS-CoV Urbani / Binding of serum SARS-green to looped/cyclic peptides of protein N of SARS-CoV Urbani: unit not given here
[2] = test system: control sera (pooled serum of ten healthy LUMC hospital workers; commercial negative donor pooled serum from the Dutch bloodbank); format: binding, human; parameters: Binding of Control serum LUMC to linear peptides / Binding of Control serum Blood-bank to linear peptides / Binding of Control serum LUMC to looped peptides / Binding of Control Serum Blood-Bank to Looped peptides / Binding of Control serum LUMC to linear peptides of the protein M of SARS-CoV Urbani / Binding of Control serum Blood-bank to linear peptides of the protein M of SARS-CoV Urbani / Binding of Control serum LUMC to looped peptides of the protein M of SARS-CoV Urbani / Binding of Control Serum Blood-Bank to Looped peptides of the protein M of SARS-CoV Urbani: unit not given here
[3] = test system: rabbit serum obtained by immunizing a rabbit with the SARS-CoV strain Frankfurt 1; format: binding; parameters: Binding of a rabbit serum to linear peptides / Binding of a rabbit serum to looped peptides / Rabbit serum linear peptides / Rabbit serum looped peptides / Binding of a rabbit serum to linear peptides of protein N of SARS-CoV Urbani (Rabbit serum linear peptides) / Binding of a rabbit serum to looped/cyclic peptides of protein N of SARS-CoV Urbani (Rabbit serum looped peptides): unit not given here

Q: How did the “Binding of serum 1a to linear peptides of protein X1 of SARS-CoV Urbani” value [1] turn out when PFGWLVIGVAFLAVF was run?
A: 0.7

Q: And the “Binding of serum 1a to looped/cyclic peptide (PEPSCAN-ELISA)” value [1]?
A: 0.5

Q: What about the “Binding of serum 1b to linear peptides of protein X1 of SARS-CoV Urbani” value [1] of the same sequence?
A: 0.5

Q: What about the “Binding of serum 1b to looped/cyclic peptide (PEPSCAN-ELISA)” value [1] of the same sequence?
A: 0.4

Q: What about the “Binding of serum 2 to linear peptides of protein X1 of SARS-CoV Urbani” value [1] of the same sequence?
A: 0.5

Q: And the “Binding of serum 2 to looped/cyclic peptide (PEPSCAN-ELISA)” value [1]?
A: 0.5

Q: And the “Binding of serum 6 to linear peptides of protein X1 of SARS-CoV Urbani” value [1]?
A: 0.4

Q: What about the “Binding of serum 6 to looped/cyclic peptide (PEPSCAN-ELISA)” value [1] of the same sequence?
A: 0.2

Q: What about the “Binding of serum 37 to linear peptides of protein X1 of SARS-CoV Urbani” value [1] of the same sequence?
A: 0.7

Q: What about the “Binding of serum 37 to looped/cyclic peptide (PEPSCAN-ELISA)” value [1] of the same sequence?
A: 0.5

Q: What about the “Binding of serum 62 to linear peptides of protein X1 of SARS-CoV Urbani” value [1] of the same sequence?
A: 0.6

Q: And the “Binding of serum 62 to looped/cyclic peptide (PEPSCAN-ELISA)” value [1]?
A: 0.5

Q: And the “Binding of serum London to linear peptides of protein X1 of SARS-CoV Urbani” value [1]?
A: 0.3

Q: What about the “Binding of serum London to looped/cyclic peptide (PEPSCAN-ELISA)” value [1] of the same sequence?
A: 0.2

Q: And the “Binding of serum SARS-green to linear peptides of protein X1 of SARS-CoV Urbani” value [1]?
A: 0.3

Q: And the “Binding of serum SARS-green to looped/cyclic peptide (PEPSCAN-ELISA)” value [1]?
A: 0.4

Q: And the “Binding of serum SARS-yellow to linear peptides of protein X1 of SARS-CoV Urbani” value [1]?
A: 0.7

Q: And the “Binding of serum SARS-yellow to looped/cyclic peptide (PEPSCAN-ELISA)” value [1]?
A: 0.5

Q: What about the “Binding of Control Serum Blood-Bank to Looped peptides” value [2] of the same sequence?
A: 0.5

Q: What about the “Binding of Control serum Blood-bank to linear peptides” value [2] of the same sequence?
A: 0.5

Q: And the “Binding of Control serum LUMC to linear peptides” value [2]?
A: 0.5

Q: And the “Binding of Control serum LUMC to looped peptides” value [2]?
A: 0.5

Q: And the “Binding of a rabbit serum to linear peptides” value [3]?
A: 1.1

Q: What about the “Binding of a rabbit serum to looped peptides” value [3] of the same sequence?
A: 0.5

Q: Which results are given for KIILFLTLIVFTSCE?
A: Binding of serum 1a to linear peptides of protein X4 of SARS-CoV Urbani [1]: 0.8; Binding of serum 1a to looped/cyclic peptides of protein X4 of SARS-CoV Urbani [1]: 0.9; Binding of serum 1b to linear peptides of protein X4 of SARS-CoV Urbani [1]: 0.9; Binding of serum 1b to looped/cyclic peptides of protein X4 of SARS-CoV Urbani [1]: 0.2; Binding of serum 2 to linear peptides of protein X4 of SARS-CoV Urbani [1]: 0.7; Binding of serum 2 to looped/cyclic peptides of protein X4 of SARS-CoV Urbani [1]: 0.8; Binding of serum 6 to linear peptides of protein X4 of SARS-CoV Urbani [1]: 0.7; Binding of serum 6 to looped/cyclic peptides of protein X4 of SARS-CoV Urbani [1]: 0.6; Binding of serum 37 to linear peptides of protein X4 of SARS-CoV Urbani [1]: 1.1; Binding of serum 37 to looped/cyclic peptides of protein X4 of SARS-CoV Urbani [1]: 0.9; Binding of serum 62 to linear peptides of protein X4 of SARS-CoV Urbani [1]: 0.9; Binding of serum 62 to looped/cyclic peptides of protein X4 of SARS-CoV Urbani [1]: 0.9; Binding of serum London to linear peptides of protein X4 of SARS-CoV Urbani [1]: 0.8; Binding of serum London to looped/cyclic peptides of protein X4 of SARS-CoV Urbani [1]: 0.4; Binding of serum SARS-green to linear peptides of protein X4 of SARS-CoV Urbani [1]: 0.7; Binding of serum SARS-green to looped/cyclic peptides of protein X4 of SARS-CoV Urbani [1]: 0.7; Binding of serum SARS-yellow to linear peptides of protein X4 of SARS-CoV Urbani [1]: 0.9; Binding of serum SARS-yellow to looped/cyclic peptides of protein X4 of SARS-CoV Urbani [1]: 0.8; Binding of Control Serum Blood-Bank to Looped peptides [2]: 0.8; Binding of Control serum Blood-bank to linear peptides [2]: 0.8; Binding of Control serum LUMC to linear peptides [2]: 0.9; Binding of Control serum LUMC to looped peptides [2]: 0.9; Rabbit serum linear peptides [3]: 0.7; Rabbit serum looped peptides [3]: 0.9

Q: Which “Binding of serum 1a to linear peptides of protein X2” value [1] does the source give for LQELLIQQWIQFMMS here?
A: 0.7

Q: And the “Binding of serum 1a to looped/cyclic peptides of protein X2 of SARS-CoV Urbani” value [1]?
A: 0.6

Q: What about the “Binding of serum 1b to linear peptides of protein X2” value [1] of the same sequence?
A: 0.6

Q: What about the “Binding of serum 1b to looped/cyclic peptides of protein X2 of SARS-CoV Urbani” value [1] of the same sequence?
A: 0.5

Q: What about the “Binding of serum 2 to linear peptides of protein X2” value [1] of the same sequence?
A: 0.3

Q: What about the “Binding of serum 2 to looped/cyclic peptides of protein X2 of SARS-CoV Urbani” value [1] of the same sequence?
A: 0.3

Q: What about the “Binding of serum 6 to linear peptides of protein X2” value [1] of the same sequence?
A: 0.3

Q: And the “Binding of serum 6 to looped/cyclic peptides of protein X2 of SARS-CoV Urbani” value [1]?
A: 0.2

Q: And the “Binding of serum 37 to linear peptides of protein X2” value [1]?
A: 0.5

Q: And the “Binding of serum 37 to looped/cyclic peptides of protein X2 of SARS-CoV Urbani” value [1]?
A: 0.4

Q: What about the “Binding of serum 62 to linear peptides of protein X2” value [1] of the same sequence?
A: 0.5

Q: What about the “Binding of serum 62 to looped/cyclic peptides of protein X2 of SARS-CoV Urbani” value [1] of the same sequence?
A: 0.6

Q: What about the “Binding of serum London to linear peptides of protein X2” value [1] of the same sequence?
A: 0.4

Q: What about the “Binding of serum London to looped/cyclic peptides of protein X2 of SARS-CoV Urbani” value [1] of the same sequence?
A: 0.2

Q: And the “Binding of serum SARS-green to linear peptides of protein X2” value [1]?
A: 0.5

Q: What about the “Binding of serum SARS-green to looped/cyclic peptides of protein X2 of SARS-CoV Urbani” value [1] of the same sequence?
A: 0.2

Q: And the “Binding of serum SARS-yellow to linear peptides of protein X2” value [1]?
A: 0.6

Q: What about the “Binding of serum SARS-yellow to looped/cyclic peptides of protein X2 of SARS-CoV Urbani” value [1] of the same sequence?
A: 0.3

Q: What about the “Binding of Control Serum Blood-Bank to Looped peptides” value [2] of the same sequence?
A: 0.6

Q: And the “Binding of Control serum Blood-bank to linear peptides” value [2]?
A: 0.5

Q: And the “Binding of Control serum LUMC to linear peptides” value [2]?
A: 0.3

Q: And the “Binding of Control serum LUMC to looped peptides” value [2]?
A: 0.6

Q: What about the “Binding of a rabbit serum to linear peptides” value [3] of the same sequence?
A: 0.3

Q: What about the “Binding of a rabbit serum to looped peptides” value [3] of the same sequence?
A: 0.3
